Reference: ChEMBL document CHEMBL4765481, “Sialyltransferase Inhibitors Suppress Breast Cancer Metastasis” (J Med Chem, 2021)

What was measured:
[1] = target: T1, CMP-N-acetylneuraminate-beta-1,4-galactoside alpha-2,3-sialyltransferase (Rattus norvegicus, UniProt Q02734); experiment: Inhibition of rat alpha-2,3-N-ST3GALIII assessed as reduction in sialylated-product formation using Gal-beta1-4Glc and CMP-NeuSAc incubated for 1.5 hrs by reverse-phase HPLC analysis
T1 sequence (Q02734 whole entry): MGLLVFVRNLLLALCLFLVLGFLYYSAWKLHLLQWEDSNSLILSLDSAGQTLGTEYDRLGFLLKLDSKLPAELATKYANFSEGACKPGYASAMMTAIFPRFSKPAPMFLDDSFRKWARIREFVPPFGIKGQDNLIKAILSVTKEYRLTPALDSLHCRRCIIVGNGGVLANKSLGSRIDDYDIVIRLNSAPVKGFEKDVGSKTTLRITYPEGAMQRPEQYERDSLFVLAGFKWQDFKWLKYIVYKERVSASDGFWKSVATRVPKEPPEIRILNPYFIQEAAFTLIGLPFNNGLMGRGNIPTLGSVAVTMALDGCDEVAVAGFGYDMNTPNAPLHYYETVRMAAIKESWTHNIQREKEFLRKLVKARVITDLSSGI

[2] = target: T2, Sialyltransferase ST3Gal-I (Rattus norvegicus) (UniProt Q6H8N0); experiment: Inhibition of rat alpha-2,3-O-ST3GALI assessed as reduction in sialylated-product formation at 500 uM using p-nitrophenyl T-antigen and CMP-NeuSAc incubated for 15 mins by reverse-phase HPLC analysis relative to control
T2 sequence (whole entry): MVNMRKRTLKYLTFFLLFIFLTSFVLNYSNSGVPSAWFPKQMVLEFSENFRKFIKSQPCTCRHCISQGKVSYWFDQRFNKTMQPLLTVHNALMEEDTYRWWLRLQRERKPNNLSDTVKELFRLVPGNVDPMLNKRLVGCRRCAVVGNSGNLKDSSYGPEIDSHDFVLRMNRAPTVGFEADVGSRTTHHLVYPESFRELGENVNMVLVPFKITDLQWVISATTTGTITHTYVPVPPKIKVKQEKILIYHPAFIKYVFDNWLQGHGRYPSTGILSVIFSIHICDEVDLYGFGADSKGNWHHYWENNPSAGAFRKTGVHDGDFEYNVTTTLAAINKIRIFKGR

[3] = Selectivity ratio of IC50 for of inhibition of rat alpha-2,3-O-ST3GALI to IC50 for inhibition of human alpha-2,6-ST6GAL1
[4] = Toxicity in human MDA-MB-231 cells assessed as cell survival at >60 uM relative to control; format: cell-based; conditions: read-out: Survival
[5] = target: T3, Beta-galactoside alpha-2,6-sialyltransferase 1 (Homo sapiens, UniProt P15907); experiment: Inhibition of human alpha-2,6-ST6GAL1 assessed as reduction in sialylated-product formation using Gal-beta1-4GlcNac and CMP-NeuSAc incubated for 15 mins by reverse-phase HPLC analysis
T3 sequence (P15907 whole entry): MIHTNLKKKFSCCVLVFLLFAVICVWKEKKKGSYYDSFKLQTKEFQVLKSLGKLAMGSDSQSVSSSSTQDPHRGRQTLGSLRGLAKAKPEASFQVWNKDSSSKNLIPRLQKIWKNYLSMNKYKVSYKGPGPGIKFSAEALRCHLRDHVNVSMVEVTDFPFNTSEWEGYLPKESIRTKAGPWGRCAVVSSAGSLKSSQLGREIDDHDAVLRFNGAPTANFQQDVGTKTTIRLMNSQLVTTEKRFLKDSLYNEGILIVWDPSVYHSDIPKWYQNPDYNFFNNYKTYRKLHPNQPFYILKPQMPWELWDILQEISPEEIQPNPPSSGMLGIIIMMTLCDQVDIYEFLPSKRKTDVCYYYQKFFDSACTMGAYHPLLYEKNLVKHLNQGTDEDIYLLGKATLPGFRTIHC

Rattus norvegicus [6] = species on record: Rattus norvegicus; experiment: Selectivity ratio of inhibition of rat alpha-2,3-O-ST3GALI at 500 uM to IC50 for inhibition of rat alpha-2,3-N-ST3GALIII
[7] = target: T2, Sialyltransferase ST3Gal-I (Rattus norvegicus); experiment: Inhibition of rat alpha-2,3-O-ST3GALI assessed as reduction in sialylated-product formation at 1 mM using p-nitrophenyl T-antigen and CMP-NeuSAc incubated for 15 mins by reverse-phase HPLC analysis relative to control
[8] = target: T4, Beta-galactoside alpha-2,6-sialyltransferase 1 (Homo sapiens) (UniProt P15907); experiment: Inhibition of human alpha-2,6-ST6GAL1 assessed as reduction in sialylated-product formation at 100 uM using Gal-beta1-4GlcNac and CMP-NeuSAc incubated for 15 mins by reverse-phase HPLC analysis relative to control
T4 sequence (whole entry): T3 sequence (P15907 whole entry)

[9] = target: T5, Sialyltransferase ST3Gal-I (Rattus norvegicus, UniProt Q6H8N0); experiment: Inhibition of rat alpha-2,3-O-ST3GALI assessed as reduction in sialylated-product formation using p-nitrophenyl T-antigen and CMP-NeuSAc incubated for 15 mins by reverse-phase HPLC analysis
T5 sequence (Q6H8N0 whole entry): T2 sequence (whole entry)

Rattus norvegicus [10] = species on record: Rattus norvegicus; experiment: Selectivity ratio of IC50 for of inhibition of rat alpha-2,3-O-ST3GALI to IC50 for inhibition of rat alpha-2,3-N-ST3GALIII
Rattus norvegicus [11] = species on record: Rattus norvegicus; experiment: Selectivity ratio of inhibition of rat alpha-2,3-O-ST3GALI at 1000 uM to IC50 for inhibition of rat alpha-2,3-N-ST3GALIII
[12] = Apparent permeability at pH 7.4 by PAMPA

Compound | IC50 [1] | inhibition [2] | Ratio IC50 [3] | viability [4] | IC50 [5] | Selectivity ratio (Rattus norvegicus [6]) | inhibition [7] | inhibition [8] | IC50 [9] | Ratio IC50 (Rattus norvegicus [10]) | Selectivity ratio (Rattus norvegicus [11]) | Papp [12]
C[C@H](CCC(=O)OCCOCCOCCOCCOCCN=[N+]=[N-])[C@H]1CC[C@H]2[C@@H]3CC[C@@H]4C[C@H](OC(=O)[C@H](CC(=O)O)Nc5ccc([N+](=O)[O-])c6nonc56)CC[C@]4(C)[C@H]3CC[C@]12C | 1 µM | 0% | > 99 | > 90% | 5 µM | > 516 | – | – | – | – | – | –
C[C@H](CCC(=O)OCCOCCOCCOCCN=[N+]=[N-])[C@H]1CC[C@H]2[C@@H]3CC[C@@H]4C[C@H](OC(=O)[C@H](CC(=O)O)NC(=O)c5ccc([N+](=O)[O-])cc5)CC[C@]4(C)[C@H]3CC[C@]12C | – | 0% | > 88 | > 90% | 5.7 µM | – | – | – | – | – | – | –
C[C@H](CCC(=O)NCC(=O)O)[C@H]1CC[C@H]2[C@@H]3CC[C@@H]4C[C@H](O)CC[C@]4(C)[C@H]3CC[C@]12C | – | 15% | – | – | – | – | 41% | 9% | – | – | – | –
C[C@@H]1O[C@@H](O[C@H]2[C@H](O[C@H]3[C@H](O[C@H]4CC[C@@]5(C)[C@@H](CC[C@]6(C)[C@@H]5CC=C5[C@@H]7CC(C)(C)C[C@@H](O)[C@]7(C)CC[C@]56C)[C@@]4(C)CO)O[C@H](C(=O)O)[C@@H](O)[C@@H]3O)O[C@H](CO)[C@H](O)[C@@H]2O)[C@H](O)[C@H](O)[C@H]1O | – | 59% | – | – | – | – | 83% | 68% | – | – | – | –
C[C@H](CCC(=O)O)[C@H]1CC[C@H]2[C@@H]3CC[C@@H]4C[C@H](OC(=O)[C@H](CCC(=O)O)Nc5ccc([N+](=O)[O-])c6nonc56)CC[C@]4(C)[C@H]3CC[C@]12C | 0.9 µM | – | 9 | – | – | – | – | – | 13.2 µM | 15 | – | –
COc1ccc2c(CC(=O)N[C@@H](CC(=O)O)C(=O)O[C@@H]3CC[C@@]4(C)[C@H](CC[C@@H]5[C@@H]4CC[C@]4(C)[C@@H]([C@H](C)CCC(=O)OCCOCCOCCOCCOCCN=[N+]=[N-])CC[C@@H]54)C3)cc(=O)oc2c1 | – | 0% | > 88 | > 90% | 5.7 µM | – | – | – | – | – | – | –
COc1ccc2c(CC(=O)N[C@@H](CC(=O)O)C(=O)O[C@@H]3CC[C@@]4(C)[C@H](CC[C@@H]5[C@@H]4CC[C@]4(C)[C@@H]([C@H](C)CCC(=O)OCCN=[N+]=[N-])CC[C@@H]54)C3)cc(=O)oc2c1 | – | 0% | > 89 | > 90% | 5.6 µM | – | – | – | – | – | – | –
COc1ccc2c(CC(=O)N[C@@H](CC(=O)O)C(=O)O[C@@H]3CC[C@@]4(C)[C@H](CC[C@@H]5[C@@H]4CC[C@]4(C)[C@@H]([C@H](C)CCC(=O)OCCOCCOCCN=[N+]=[N-])CC[C@@H]54)C3)cc(=O)oc2c1 | – | 0% | > 109 | > 90% | 4.6 µM | – | – | – | – | – | – | –
COc1ccc2c(CC(=O)N[C@@H](CC(=O)O)C(=O)O[C@@H]3CC[C@@]4(C)[C@H](CC[C@@H]5[C@@H]4CC[C@]4(C)[C@@H]([C@H](C)CCC(=O)OCCOCCN=[N+]=[N-])CC[C@@H]54)C3)cc(=O)oc2c1 | – | 0% | > 97 | > 90% | 5.1 µM | – | – | – | – | – | – | –
C[C@H](CCC(=O)OCCOCCN=[N+]=[N-])[C@H]1CC[C@H]2[C@@H]3CC[C@@H]4C[C@H](OC(=O)[C@H](CC(=O)O)Nc5ccc([N+](=O)[O-])c6nonc56)CC[C@]4(C)[C@H]3CC[C@]12C | 0.77 µM | 0% | > 116 | > 90% | 4.33 µM | > 649 | 74% | – | – | – | < 1300 | –
C[C@H](CCC(=O)OCCOCCOCCN=[N+]=[N-])[C@H]1CC[C@H]2[C@@H]3CC[C@@H]4C[C@H](OC(=O)[C@H](CC(=O)O)NC(=O)c5ccc([N+](=O)[O-])cc5)CC[C@]4(C)[C@H]3CC[C@]12C | – | 0% | > 94 | > 90% | 5.4 µM | – | – | – | – | – | – | –
C[C@H](CCC(=O)OCCN=[N+]=[N-])[C@H]1CC[C@H]2[C@@H]3CC[C@@H]4C[C@H](OC(=O)[C@H](CC(=O)O)NC(=O)c5ccc([N+](=O)[O-])cc5)CC[C@]4(C)[C@H]3CC[C@]12C | – | 0% | > 70 | > 90% | 7.2 µM | – | – | – | – | – | – | –
C[C@H](CCC(=O)OCCN=[N+]=[N-])[C@H]1CC[C@H]2[C@@H]3CC[C@@H]4C[C@H](OC(=O)[C@H](CC(=O)O)Nc5ccc([N+](=O)[O-])c6nonc56)CC[C@]4(C)[C@H]3CC[C@]12C | 0.8 µM | 0% | > 119 | > 90% | 4.2 µM | > 625 | – | – | – | – | – | –
Cn1c(=O)c2[nH]cnc2n(C)c1=O.O [THEOPHYLLINE] | – | – | – | – | – | – | – | – | – | – | – | 1.4 ×10⁻⁶ cm/s
C[C@H](CCC(=O)O)[C@H]1CC[C@H]2[C@@H]3CC[C@@H]4C[C@H](OC(=O)[C@@H](N)CC(=O)O)CC[C@]4(C)[C@H]3CC[C@]12C | 12 µM | – | 3 | – | 15.8 µM | – | – | – | 39 µM | 3 | – | –
C[C@H](CCC(=O)OCCOCCN=[N+]=[N-])[C@H]1CC[C@H]2[C@@H]3CC[C@@H]4C[C@H](OC(=O)[C@H](CC(=O)O)NC(=O)c5ccc([N+](=O)[O-])cc5)CC[C@]4(C)[C@H]3CC[C@]12C | – | 0% | > 74 | > 90% | 6.7 µM | – | – | – | – | – | – | –
C[C@H](CCC(=O)OCCOCCOCCOCCOCCN=[N+]=[N-])[C@H]1CC[C@H]2[C@@H]3CC[C@@H]4C[C@H](OC(=O)[C@H](CC(=O)O)NC(=O)c5ccc([N+](=O)[O-])cc5)CC[C@]4(C)[C@H]3CC[C@]12C | – | 0% | > 67 | > 90% | 7.5 µM | – | – | – | – | – | – | –
COc1ccc2c(CC(=O)N[C@@H](CC(=O)O)C(=O)O[C@@H]3CC[C@@]4(C)[C@H](CC[C@@H]5[C@@H]4CC[C@]4(C)[C@@H]([C@H](C)CCC(=O)OCCOCCOCCOCCN=[N+]=[N-])CC[C@@H]54)C3)cc(=O)oc2c1 | – | 0% | > 101 | > 90% | 5 µM | – | – | – | – | – | – | –
